Source: a melting point compilation (Tetko et al.; mined from patent text by program, amines drawn as free bases though some values may be those of a salt)

Row | Compound | melting point [°C]
1 | O=C1NC(=O)C(c2ccc3c(c2)CCC3)S1 (stereo not given) | 124 to 125
2 | O=P(O)(O)Oc1cccc(-c2nc3sccn3c2-c2cccc(N[C@@H]3CCCN(S(=O)(=O)c4ccc(Cl)cc4)C3)c2)c1 | 239 to 245
3 | CC(C)(C)c1cc(-c2nn(CC(N)=O)c3ncccc23)cc(C(C)(C)C)c1O | 162 to 164
4 | Cc1ccc(COC(C)CN(O)C(N)=O)s1 (stereo not given) | 84 to 85
5 | CC(C)(C)NC(=O)C1CCC2C3CC=C4C=C(C#N)CCC4(C)C3CCC12C (stereo not given) | 198 to 200
6 | CCOC(=O)CSCc1cc(-c2nn(C)c(C(F)(F)F)c2Cl)c(F)cc1Cl | 63
7 | CC1(C)Cc2sccc2C(=O)N1 | 153 to 154
8 | CC(C)(C)OC(=O)Nc1sc(-c2cccnc2)nc1C(F)(F)F | 145 to 147
9 | CCCCn1c(=O)[nH]c2cccnc2c1=O | 200 to 210
10 | CN(C)Cc1ccc2cc(C(=O)Nc3ccc(-c4ccc(Cl)cc4)cc3)ccc2c1 | 240 to 242
11 | COc1ccc(C(=O)O)cc1OC1CCSC1 (stereo not given) | 177 to 179
12 | C=C1C(O)C2(O)OCC34C(CC5C(C)=CC(=O)C(O)C5(C)C23)OC(=O)CC14 (stereo not given) | 235 to 237
13 | CC1(c2ccc(C3(O)CCCCCC3)cc2)OCCO1 | 77 to 79
14 | CCCc1cc(Cl)c2oc(C(=O)c3ccc(OC)cc3)c(C)c2c1OC(=O)c1ccc(OC)cc1 | 103 to 105
15 | CC(=O)SCCCCCCCCCCCOCCOCCOCCOc1ccc(OCc2ccccc2)cc1 | 55 to 57
16 | Cc1nc2c(o1)-c1c(SC(C)C)sc(C(N)=O)c1CC2 | 230 to 231
17 | CCCc1cc(O)nc(-c2ccncc2)n1 | 173 to 174
18 | Cc1cccc2ncc(C(=O)NC3CCCCCC3)c(=O)n12 | 172 to 174
19 | N=C(N)c1ccc(NC(=O)N(c2cccc(C(=N)N)c2)C2CCCCCC2)cc1 | 204 to 206
20 | COc1cc(N)c(C#N)cc1C(=O)O | 237
21 | CCCCNC(=O)ON1C(C)(C)CC(OC(=O)C(CC)(CC)C(=O)OC2CC(C)(C)N(OC(=O)NCCCC)C(C)(C)C2)CC1(C)C | 166 to 169

Row | Compound | melting point [°C]
22 | Cc1nc(N)nc(N)c1CCC(C)c1ccc(Cl)cc1Cl (stereo not given) | 164 to 168
23 | COc1cc2ncc(NC3CCCCC3)nc2cc1N1CCOCC1 | 194 to 196
24 | CC(C)CCCC(C)C1CC=C2C3=C(CCC21C)C1(C)CC=CCC1CC3 (stereo not given) | 105
25 | CNC(=O)[C@@H](C[C@H](O)[C@H](CC(C)C)NC(=O)OC(C)(C)C)C(C)(C)O | 121 to 123
26 | CCCCCCS(=O)(=O)c1ccc(N)cc1 | 95 to 97
27 | C[C@]1(CN2CC=C(c3ccccc3)CC2)Cn2cc([N+](=O)[O-])nc2O1 | 200 to 201
28 | COc1cccc([C@H]2O[C@H](CC(=O)NCCCOc3cccc(C(=O)O)c3)C(=O)N(CC(C)(C)CO)c3ccc(Cl)cc32)c1OC | 132 to 134
29 | CN(C)C1CCc2[nH]c3ccc(CO)cc3c2C1 (stereo not given) | 195 to 197
30 | CCCCCCCCCCCCCCC1Cc2ccc(C(=O)O)cc2N1C (racemic) | 115 to 118
31 | C1=C(c2cc(-c3ccccc3)no2)CCN(Cc2c[nH]c3ncccc23)C1 | 224 to 226
32 | CS(=O)c1nc(-c2cc(C(C)(C)C)c(O)c(C(C)(C)C)c2)c[nH]1 (stereo not given) | 106 to 108
33 | O=c1[nH]c2ccc(-c3ncc[nH]3)cc2[nH]c1=O | > 300
34 | CCc1c(C=CC(=O)O)ccc2c1OCO2 | 204
35 | COC(=O)c1nc(NC(C)=O)ccc1Oc1nc(OC)cc(OC)n1 | 80 to 85
36 | O=C(NCCc1ccc(Cl)cc1)c1ncccc1O | 91 to 93
37 | COc1ccc2cc(CCc3ccc(OCC(O)CNC(C)C)c(OC)c3)n(C)c(=O)c2c1 (stereo not given) | 162 to 164
38 | CCCCCc1c(C(C)C)nc(C(C)C)c(CO)c1-c1ccc(F)c(F)c1 | 106 to 107
39 | O=C(Nc1cc(C(F)(F)F)ccc1N1CCOCC1)c1ccncc1 | 172 to 173
40 | CCCN(CCC)C(=O)c1cc(C(=O)N[C@@H](Cc2cc(F)cc(F)c2)[C@H](O)CNCc2cc(CN(C)C)ccn2)cc(-c2ncco2)c1 | 65 to 68
41 | Cc1ccc2c(=O)nc(-c3cc(S(C)(=O)=O)cc(CCC(=O)OC(C)(C)C)n3)sc2c1 | 178
42 | CN(C)C(=O)C(C#N)=C(OC(=O)c1ccc(Cl)cc1[N+](=O)[O-])c1ccc(Cl)cc1[N+](=O)[O-] | 137 to 146

Row | Compound | melting point [°C]
43 | COc1ccc(Nc2ccc(Nc3ncnc4cc(-c5ccc(OC)cc5)sc34)cc2)cc1 | 159 to 169
44 | Cc1nc(N2CCCC2)nc2c1c(=O)c(C(=O)O)cn2C1CC1 | 253
45 | CCN(CC)C(=O)/C=C/C(C)Sc1nc(N)cc(Cl)n1 (stereo not given) | 152 to 153
46 | COc1cc2c(c3c1OC(C)(C)C3)C(c1cccc(C#N)c1)=NCC2(C)C | 178 to 180
47 | OC(Cc1ccc(Cl)cc1Cl)(Cn1ccnc1)c1ccc(F)cc1 (stereo not given) | 178 to 179
48 | O=C(O)Cc1cn(C(=O)c2cncs2)c2ccc(Cl)cc12 | 175 to 180
49 | O=C(O)c1cn(-c2nnc(C(F)(F)F)s2)c2cc(F)c(F)cc2c1=O | 272 to 276
50 | Cc1cc(C)c(-c2cc3cnc(N)nc3nc2NC(=O)NC(C)(C)C)c(C)c1 | 281 to 297
51 | CC(=O)Nc1ccc(SCCN2CC=C(c3ccc(F)cc3)CC2)cc1 | 150 to 152
52 | CC(=O)OCC(=O)N(C)C | 52 to 53
53 | COc1ccc(Cl)cc1-n1cncc1-c1ccc(C(F)(F)F)cc1 | 158 to 159
54 | O=C1SC(Cc2ccc(OCCON=Cc3ccc(-c4ccccc4)cc3)cc2)C(=O)N1C(c1ccccc1)(c1ccccc1)c1ccccc1 (stereo not given) | 157 to 159
55 | CC(=O)NN=Cc1ccc2ccccc2n1 | 218 to 219
56 | C=COC(=O)N=c1sc2cc(OC(F)(F)F)ccc2n1CCSC(C)=O | 173
57 | C[C@@H](n1ncn(-c2ccncc2)c1=O)[C@@]1(c2ccc(F)cc2F)CO1 | 96 to 97
58 | O=C(O)c1cc(NCc2c(F)c(F)c(C(F)(F)F)c(F)c2F)ccc1OC(=O)C1CCCCC1 | 190 to 193
59 | NC(=O)c1cc2c(cc1OCC1CCCCC1)OCCCC2=O | 185 to 186
60 | COC(=O)c1cccc2nnsc12 | 130 to 133
61 | CN=C(NC#N)C1=CC2(CCCCC2)Oc2ccc([N+](=O)[O-])cc21 | 244 to 245
62 | COc1[nH]c(C)c(SC(F)(Cl)Cl)c1C#N | 175
63 | CCc1n[nH]c(CC)c1CCCCCCOc1ccc([N+](=O)[O-])cc1Cl | 130 to 132

Next, values leading:

Row | melting point [°C] | Compound
64 | 113 to 115 | c1ccc2c(CCCCN3CCc4c(sc5ccccc45)C3)c[nH]c2c1
65 | 224 | Cc1cc2cc(Oc3ccccc3)cnc2cc1C
66 | 109 to 111 | CCOCC1(F)CCN(c2ccc(N3C[C@H](CNC(C)=O)OC3=O)cc2F)CC1
67 | 157 | Cc1ccc(C(C)NC(=O)C2CC(=O)c3cc(F)ccc3O2)cc1 (single isomer, unassigned; (+))
68 | 109 to 110 | CCNc1cccnc1N(CC)CC1CCN(C(=O)c2ccc[nH]2)CC1
69 | 291 to 293 | COc1cccc2cc3c(c(-c4ccc5c(c4)OCO5)c12)C(=O)NC3=O
70 | 336 to 339 | Nc1ccc2c(=O)n3c(nc2c1)C(=Cc1ccc(C(=O)O)cc1)CC3
71 | 84 | CCN(CC)C(=O)n1cc(C(=O)C2CSC(c3cccnc3)N2)c2ccccc21 (stereo not given)
72 | 278 | Cn1cnc2c1c1n[nH]c(=S)n1c(=O)n2Cc1ccccc1
73 | 174 to 176 | COc1ccc(-c2c(CO)c(CO)c3n2Cc2ccccc2C3)cc1
74 | 180 to 182 | N#Cc1c(N2CCCCC2)cc(-c2ccc(F)cc2)c2c1-c1ccccc1C2=O
75 | 171 to 172 | CCOc1ccc2nc(CN3CCN(c4ccc(Cl)cc4Cl)CC3)cn2c1
76 | 112 to 117 | Cc1cccc2c1nc(-c1c(F)cccc1F)n2Cc1ccccc1
77 | 116 to 118 | CCCC(C(N)=O)n1cc(C)c(-c2ccccc2)n1 (stereo not given)
78 | 221 to 222 | CC(C)Cn1c(C#N)c(-c2ccccc2)c2cccnc2c1=O
79 | 93 | COc1cccc(-c2cccc3c2CCn2cc(-c4ccccc4)nc2C3OC2CCN(C)CC2)c1 (stereo not given)
80 | 181 | CCOC(=O)c1c(N2CCNCC2)c2cc(C)ccc2n(-c2ccccc2)c1=O
81 | 128 to 130 | CC(=O)c1ccc(OCCOc2ccc3ccccc3c2)cc1C
82 | 208 to 210 | CS(=O)c1ccc(-n2[nH]c3ccccc3c2=O)cc1 (stereo not given)

Row | melting point [°C] | Compound
83 | 254 to 255 | O=C(c1cc2ccccc2[nH]1)N1CCOCC1Cl (stereo not given)
84 | 158 | CC(C)N1CCC(n2nc(-c3c(-c4ccccc4)nn4ccccc34)ccc2=O)CC1
85 | 182 | CCOC(=O)N1CCc2nc3cccc(N)c3c(C)c2CC1
86 | 156 to 158 | CNc1cc(-n2ccc3ccccc32)cc(C)n1
87 | 188 | COc1ccc2ccc(N3C(=O)c4ccccc4C3OCC(=O)OC(C)(C)C)nc2n1 (stereo not given)
88 | 233 to 234 | C[C@H](NC(=O)OCc1ccccc1)C(=O)N[C@@H](C)C(=O)NC1CCCCC1
89 | 133 to 135 | CC1(C)CC(=O)CC(=O)C1c1ccccc1 (stereo not given)
90 | 198 to 199 | CCOc1ccccc1-c1nc2c(OC)cccc2c(=O)[nH]1
91 | 214 to 216 | CCCc1c(OCc2ccccc2C(=O)O)ccc(C(C)=O)c1O
92 | 166 to 167 | CC(C)(C)OC(=O)N1CCN(C(=O)N2CC(=O)Nc3ccccc32)CC1
93 | 95 to 100 | CC(=O)Oc1cccc2oc(C(=O)OCc3ccc(Cl)cc3)c(C)c12
94 | 193 to 195 | CCOC(=O)c1ccn2c(C(=O)c3cccc(O)c3)c(-c3ccccc3)cc2c1
95 | > 300 | CN(C)c1ccc2nc(-c3csc4ccccc34)[nH]c(=O)c2c1
96 | 235 to 238 | O=c1[nH]c2cccnc2n1-c1ccccn1
97 | 177 to 179 | COc1ccc(CCN(CCc2ccc(-c3ccccc3)cc2)C(=O)CCCCC(N)=O)cc1OC
98 | 135 | CN1CCCC[C@@H]1Cc1c(-c2ccccc2)[nH]c2ccccc12
99 | 186 to 187 | COc1ccc(C(=O)N[C@@H]2CCc3cccc(N4CCN(C)CC4)c3C2)cc1
100 | 153 | Cc1ccc2c(c1)c(=O)oc(=O)n2C
